From article PMC8424644, “Thermodynamic Stability and Speciation of Ga(III) and Zr(IV) Complexes with High-Denticity Hydroxamate Chelators” (Inorganic Chemistry, 2021)

Assay: Fe(III)-L + Zr(IV)-NTA metal–metal competition UV–vis titrations
Format: physicochemical
Conditions: log β[ZrL2] vs log β[ZrL1]

N[C@H]1CCCCNC(=O)CCCN(O)C(=O)CCCNC(=O)CCCN(O)C(=O)CCCNC(=O)CCCN(O)C(=O)CCCNC(=O)CCCN(O)C(=O)CCCNC1=O [H4L2, (S)-43-Amino-6,16,26,36-tetrahydroxy-1,6,11,16,21,26,31,36,41-nonaazacycloheptatetracontane-2,7,12,17,22,27,32,37,42-nonaone]
increase in log β of the Zr(IV) complex with respect to Zr(IV)-H3L1: 8.5 orders of magnitude
